Test results published in the supplement of paper PMC10949913.

Key:
[1] = system: CU-ACC1; experiment: area under concentration-response curve (viability) (AUC (a.u.)); higher = less active; settings: 48 h
In short: (§1)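 Cells from three adrenocortical carcinoma lines were seeded at 500–1,000 cells/well in 5 µL medium in 1,536-well plates. Each library compound was added as 23 nL at 11 concentrations, and after 48 h CellTiter-Glo was added for 15 minutes at room temperature before reading luminescence. Plate-wise normalisation to vehicle and empty-well controls preceded curve fitting. AC50 and area under the curve were calculated only for inhibitory or non-responding curve classes.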

[2] = system: NCI-H295R; experiment: as above; settings: 48 h
In short: as §1

| Compound | area under concentration-response curve [1] | area under concentration-response curve [2] |
| --- | --- | --- |
| COC1=C(OC)C(=O)C(C/C=C(\C)CC/C=C(\C)CC/C=C(\C)CC/C=C(/C)CC/C=C(\C)CC/C=C(\C)CC/C=C(\C)CC/C=C(\C)CC/C=C(\C)CCC=C(C)C)=C(C)C1=O | 502 | 559 |
| O=C(Nc1cccc(C(F)(F)F)c1)c1cccc2cc(Oc3cc(CO)ncn3)ccc12 | 516 | 579 |
| CCc1ccc(CCOc2ccc(CC3SC(=O)NC3=O)cc2)nc1 (configuration not stated) | 112 | 110 |
| Cc1cc(Oc2ccc3nc(COc4ccc(CC5SC(=O)NC5=O)cc4)n(C)c3c2)cc(C)c1N (configuration not stated) | 512 | 556 |
| CCCCC[C@H](O)/C=C/[C@H]1[C@H](O)CC(=O)[C@@H]1C/C=C\CCCC(=O)O | 485 | 529 |
| C/C(O)=C(\C#N)C(=O)Nc1cc(Br)ccc1Br | 446 | 456 |
| C1C\N=C(\NC(C2CC2)C3CC3)O1 | 542 | 591 |
| O=C(O)C1(Cc2cccc(Nc3nccs3)n2)CCC(Oc2cccc(Cl)c2F)CC1 (configuration not stated) | 511 | 510 |
| O=C(Nc1cnn2ccc(N3CCC[C@@H]3c3cc(F)ccc3F)nc12)N1CC[C@H](O)C1 | 534 | 554 |
| CCCCOCCOc1nc(-c2ccc(C(=O)O)c(F)c2)sc1C | 367 | 399 |
| O=C(Nc1cnccc1Cl)N1CCN(Cc2ccc3c(c2)OC(F)(F)O3)CC1 | 330 | 414 |
| CN1C(=O)C[C@H](C(=O)N[C@@H](Cc2cnc[nH]2)C(=O)N2CCC[C@H]2C(N)=O)NC1=O | 537 | 589 |
| O=C\1N(N\C=C1[N]2C=CN=N2)C3=NC=NC(=C3)N4CCOCC4 | 492 | 521 |
| OCCN1CCN(CCCN2c3ccccc3Sc3ccc(C(F)(F)F)cc32)CC1 | 432 | 279 |
| CC(C)(O)[C@H]1CC[C@@](C)([C@H]2[C@@H](O)C[C@@]3(C)[C@@H]4C[C@H](O[C@@H]5O[C@H](CO)[C@@H](O)[C@H](O)[C@H]5O)[C@H]5C(C)(C)[C@@H](O[C@@H]6OC[C@@H](O)[C@H](O)[C@H]6O)CC[C@@]56C[C@@]46CC[C@]23C)O1 | 535 | 547 |
| O=C(O)c1cc(/N=N/c2ccc(S(=O)(=O)Nc3ccccn3)cc2)ccc1O | 505 | 522 |
| CC(C)(C)C(=O)N1\N=C/C[C@H]1C2=CC=CC=C2 | 549 | 568 |
| CN(C)C1=C(Br)C=C(C=C1)C\2NC3=C(\C4=C2C(=O)CC(C)(C)C4)C5=CC=CC=C5C=C3 (configuration not stated) | 506 | 515 |
| C[N]1N=CC=C1C/2=C(\C)N(C(=O)C(=C2)/C(=O)NCC3=NC=C(C=C3)[S+](C)([O-])=O)C4=CC=CC(=C4)C(F)(F)F | 380 | 277 |

| Compound | area under concentration-response curve [1] | area under concentration-response curve [2] |
| --- | --- | --- |
| CCCC[S+](=N)([O-])CCC(N)C(=O)O (configuration not stated) | 472 | 533 |
| CCN1\C=C(C(O)=O)/C(=O)C2=C1C=C(N3CCN(C)CC3)C(=C2)F | 511 | 555 |
| COC/1=C(\CNC(=O)C2=C(C)[N]([C@H](C)C3CCOCC3)C4=CC=CC=C24)C(=O)NC(=C1)/C | 357 | 429 |
| CONC(=O)Nc1ccc(-c2sc3c(c2CN(C)C)c(=O)n(-c2ccc(OC)nn2)c(=O)n3Cc2c(F)cccc2F)cc1 | 354 | 458 |
| CC(C)c1ccccc1Cc1cc(C(=O)Nc2ccc([S+](=O)([O-])c3ccccc3C(C)(C)C)cc2)c(O)c(O)c1O | 293 | 205 |
| O=C(O)CC/C=C\CC[C@@H]1[C@@H](N2CCCCC2)[C@@H](O)C[C@@H]1OCc1ccc(-c2ccccc2)cc1 | 389 | 424 |
| COCCOC(=O)C/1=C(C)/NC/2=C(C1C3=CC=CC(=C3)O)/C(=O)CC(C2)C4=C(OC)C=CC=C4 (configuration not stated) | 446 | 507 |
| O=C(O)/C(S)=C/c1ccc(I)cc1 | 368 | 459 |
| COC(=O)C[C@](O)(CCCC(C)(C)O)C(=O)O[C@@H]1C(OC)=CC23CCCN2CCc2cc4c(cc2[C@H]13)OCO4 (some centres not stated) | 149 | 252 |
| CN1CCCN(CC1)C2=CC=C3C(=O)\C(=C/4SC5=C(C=CC=C5)N4C3=N2)C(=O)NCC6=CN=C(C)C=N6 | 528 | 554 |
| Cn1ncc(Cl)c1-c1cc(C(=O)N[C@H](CN)Cc2cccc(F)c2)sc1Cl | 305 | 335 |
| CC1(C)O[C@@H]2C[C@H]3[C@@H]4CCC/5=C/C(=O)/C=C\[C@]5(C)[C@H]4[C@@H](O)C[C@]3(C)[C@@]2(O1)C(=O)CO | 469 | 524 |
| CCOC(=O)O[C@@]1(CC[C@H]2[C@@H]3CCC/4=C/C(=O)/C=C\[C@]4(C)[C@H]3[C@@H](O)C[C@]12C)C(=O)OCCl | 364 | 395 |
| O=C(O)CCc1ccc(NCc2cccc(Oc3ccccc3)c2)cc1 | 546 | 599 |
| CN[C@@H](C)[C@H]1[C@H](O)C[C@@]2(C)[C@@H]3CC[C@H]4C(C)(C)[C@@H](NC)CC[C@@]45C[C@@]35CC[C@]12C | 546 | 613 |
| CO[C@@H](C(=O)N1Cc2[nH]nc(NC(=O)c3ccc(N4CCN(C)CC4)cc3)c2C1)c1ccccc1 | 539 | 549 |
| CC1(C)[C@@H](O)CC[C@@]2(C)[C@H]1CC[C@]3(C)[C@@H]2C(=O)\C=C/4[C@@H]5C[C@](C)(CC[C@]5(C)CC[C@@]34C)C(O)=O | 512 | 545 |
| Cc1nc(N)sc1-c1ccnc(Nc2ccc(N3CCOCC3)cc2)n1 | 400 | 414 |
| Cc1c(F)ccc(C(=O)Nc2cc([N+](=O)[O-])ccc2N2CCN(C)CC2)c1Cl | 457 | 434 |

| Compound | area under concentration-response curve [1] | area under concentration-response curve [2] |
| --- | --- | --- |
| C[C@@H](Nc1ncnc2[nH]c(-c3ccc(O)cc3)cc12)c1ccccc1 | 300 | 328 |
| COc1cc2ncnc(Oc3cccc(NC(=O)Nc4cc(C(C)(C)C(F)(F)F)on4)c3)c2cc1OC | 446 | 467 |
| CN1C(=O)[C@@H](NC(=O)c2nc(Cc3ccccc3)n[nH]2)COc2ccccc21 | 536 | 559 |
| N[C@H](CSC(c1ccccc1)(c1ccccc1)c1ccccc1)C(=O)O | 529 | 564 |
| O=C(Nc1nc2ccccc2n1CCN1CCOCC1)c1cccc([N+](=O)[O-])c1 | 527 | 549 |
| OC(=O)/C1=C/CCN(CCOC(C2=CC=C(C=C2)C(F)(F)F)C3=CC=C(C=C3)C(F)(F)F)C1 | 548 | 569 |
| Cc1c[nH]c(-c2cnc(NCCNc3ccc(C#N)cn3)nc2-c2ccc(Cl)cc2Cl)n1 | 538 | 558 |
| O=C(/C=C/c1ccc(O)cc1)c1ccc(O)cc1O | 465 | 492 |
| CC(=O)CC(C1=CC=CC=C1)C/2=C(O)/C3=CC=CC=C3OC2=O (configuration not stated) | 491 | 533 |
| CCC(C)(C)C(=O)O[C@H]1C[C@@H](C)\C=C2\C=C/[C@H](C)[C@H](CC[C@@H]3C[C@@H](O)CC(=O)O3)[C@@H]12 | 399 | 565 |
| CCNC(=O)Nc1ncc(-c2cc(-c3c(C)cc(OC)cc3C)nc(-c3cnccn3)n2)s1 | 482 | 520 |
| Cc1ccc(Nc2cc(N[C@@H]3CCCC[C@@H]3N)nnc2C(N)=O)nc1C | 516 | 568 |
| NC(=O)c1cc(F)cc2c1C(=O)N(C1CCN(C3CCC(F)(F)CC3)CC1)C2 | 541 | 568 |
| N[C@@H](Cc1c[nH]c2ccc(O)cc12)C(=O)O | 483 | 567 |
| COc1nc(N)nc2c1ncn2C1OC(CO)C(O)C1O (configuration not stated) | 461 | 469 |
| Cc1csc(-c2nnc(Nc3ccc(Oc4ncccc4-c4ccnc(N)n4)cc3)c3ccccc23)c1 | 504 | 470 |
| c1cnc2cc3c(cc2n1)C1CNCC3C1 | 536 | 563 |
| COC1=C(OC)C=C2C(=C1)C(=O)N(CCCN3CCOCC3)\C4=C2\C(=O)C5=C4C=C6OCOC6=C5 | 400 | 463 |
